Key:
Assay type in all cases: in vivo, C57BL/6 mice
[1] = system: SIINFEKL [SEQ ID NO:2]-specific CD8^+ T-cells; test: SIINFEKL-specific CD8+ T-cells by IFNγ ELISPOT after i.t. PEP005 treatment of Lewis lung-OVA
Procedure: FIGS. 4A to D are graphical representations showing protection against secondary tumors following cure of primary tumors with PEP005. (A) C57BL/6 mice received 5×10^5 Lewis lung-OVA s.c. on the back on day less 7 (d−7). When these primary tumors had reached an average 13.6 mm^2±1.8 SE (range 10-25 mm^2) on d0 they were treated once with 16 μg of PEP005 delivered i.t. In eight mice these primary tumors were cured, and these mice received 5×10^5 Lewis lung-OVA s.c. on d4 on the opposite flank from the primary tumors. The emergence of these secondary tumors was monitored over time (PEP005 cured). In a parallel group of animals (n=5) PEP005 treatment regressed the primary tumors, but after 11-13 days the primary tumors re-emerged. These animals also received secondary tumors as above and their emergence was again monitored over time (PEP005 regressed). Two control groups were included. One group (n=6) received no primary tumors, but was treated s.c. with PEP005 and received secondary tumors on the opposite flank (white triangles, PEP005 s.c.). […] Secondary B16-OVA (10^5) were injected i.v. on d6 and animals were sacrificed on d27 and lung metastases counted.
(§1) Mouse splenocytes were analyzed by ex vivo IFNγ ELISPOT essentially as described previously (Le et al, Vaccine 19:4669-4675, 2001), but using MultiScreen-IP plates (Millipore) and 25 IU/ml of recombinant human IL-2 (Cetus).

Lewis lung-OVA tumors = test: Topical PEP005 treatment of Lewis lung-OVA tumors: tumor growth and SIINFEKL-specific CD8+ T-cell ELISPOT
Procedure: B16 and B16 cells stably expressing ovalbumin (B16-OVA)were grown s.c. in C57BL/6 mice as described previously (Ogbourne et al, Cancer Res 64:2833-2839, 2004; Anraku et al, J Virol 76:3791-3799, 2002). Lung metastases were established as described (Zeh et al, J Immunol 162:989-994, 1999). Lewis lung-OVA (Nelson et al, J Immunol 166:5557-5566, 2001) were grown s.c. in C57BL/6 as described (Lenarczyk et al, Vaccine 22:963-974, 2004).
Tumors were treated by topical or intratumoral (i.t.) injection (using a 26 gauge needle) of (i) PEP0005 dissolved in acetone and then RPMI 1640 (final concentration of acetone 4%), or (ii) PEP005 formulated in PEG400.
as §1
Lewis lung-OVA tumors were established on five C57/B16 mice; when they had reached 10-20 mm^2, they were treated topically with PEP005. […] A parallel group of tumor-bearing mice (M7-12) were treated (vehicle only) and grew rapidly as expected with mean size±SD shown (FIG. 2, V(M7-12)). […] The sensitivity of this assay is about five spots per 10^6 splenocytes. […] Thus, again PEP005 treatment was associated with induction of anti-cancer CD8^+ T-cells.

B16 tumors = test: PEP005-mediated cure of primaries plus DC therapy, growth of secondary tumors, B16 model; conditions: DC p=0.009
Procedure: FIGS. 13A to C are graphical representations showing synergistic effects between PEP005-mediated cure of primaries and DC therapy on the growth of secondary tumors and on CD8^+ T-cell induction. (A) On d−3 C57BL/6 mice where inoculated with 2×10^6 B16-OVA cells on the right flank (primary tumor) and 2×10^4 B16-OVA cells on the left flank (secondary tumor). On d0 and d1 the primary B16-OVA tumors, which has reach 30.4 mm^2+SD6 were cured with i.t. injections of 25 μg of PEP005 formulated in PEG400. On d4 and d11 mice received DC therapy using DC2.4 cells pulsed with SVYDFFVWL [SEQ ID NO:1], KVPRNQDWL [SEQ ID NO:4] and SIINFEKL [SEQ ID NO:2] peptides, and ovalbumin (n=12, PEP005+DC). […] A third group was inoculated with secondary tumors only and received the DC therapy (n=14, DC), and the control group was given only secondary tumors and received no treatment (n=18, Control). Animals were culled when the secondary tumors reached 100 mm^2. (B) The experiment in (A) was repeated in the B16 model (n=6 per group). On d−2 C57BL/6 mice were inoculated with 10^6 B16 cells on the right flank (primary tumor) and 5×10^4 cells on the left flank (secondary tumors). […] Animal groups were established and treated as in (A) except that on d12 mice were sacrificed and splenocytes analyzed in an ex vivo ELISPOT assay for responses to SVYDFFVWL [SEQ ID NO:1], KVPRNQDWL [SEQ ID NO:4] and SIINFEKL [SEQ ID NO:2] […]

[2] = topical PEP005, tumors 10-20 mm^2 at treatment

In the case of `C/C=C(/C)C(=O)O[C@H]1C(C)=C[C@]23C(=O)[C@@H](C=C(CO)[C@@H](O)[C@]12O)[C@H]1[C@@H](C[C@H]3C)C1(C)C` [PEP005, ingenol-3-angelate], the “number of SIINFEKL-specific CD8+ T-cells vs untreated control animals” value ([1]; PEP005 injected s.c. rather than into a tumor) is reported as “failed to increase”, the “SIINFEKL-specific CD8+ T-cells vs control animals” value ([1]; primary tumors cured by PEP005, p=0.008 unpaired t-Test) is reported as “significantly more” and the “SIINFEKL-specific CD8+ T-cell responses” value (Lewis lung-OVA tumors; animals with Lewis lung-OVA tumors treated topically with PEP005) is reported as “a range of responses that correlated with the effectiveness of the treatment”. The “SIINFEKL-specific CD8+ T-cell responses, mean ± SD for all mice” value (Lewis lung-OVA tumors; topical PEP005, mice without tumors, assay sensitivity about five spots) was 6.3±9.8 spots per 10^6 splenocytes, the “animals showing a limited response of five treated” value (Lewis lung-OVA tumors; [2]) was “two” and the “animals showing a partial response of five treated” value (Lewis lung-OVA tumors; [2]) was “two”. The “tumors cured of the five tumors treated” value (Lewis lung-OVA tumors; [2]) was “one” and the “growth of secondaries vs no treatment controls” value (B16 tumors) was “did not provide a significant delay of tumor growth”.
